According to ChEMBL document CHEMBL5550097, “Drug-drug conjugates of MEK and Akt inhibitors for RAS-mutant cancers” (Bioorg Med Chem, 2024):

Conditions: human, microsomes, 1 h, 10 µM
Description: Metabolic stability in human liver microsomes at 10 uM preincubated for 5 mins followed by NADPH addition and measured upto 60 mins by LC-MS/MS method

In the case of Cc1ncc2n1-c1ccc(Cl)cc1C(c1ccccc1F)=NC2 [MIDAZOLAM], the Stability was “Unstable”.
